Assay results: patent publication EP2253617A1, “Halogenated compounds as pesticides” (Bayer CropScience AG, priority 2009, dated 2010)
Where two headings read alike, the source gives them in different places.

Key:
physchem [1] = assay: physchem
Spodoptera frugiperda = Spodoptera frugiperda test (SPODFR spray treatment); format: in vivo; conditions: 500 g/ha, sprayed maize leaf discs, caterpillars, after 7 days; 100 % = all caterpillars killed
From the text: Spodoptera frugiperda-Test (SPODFR Spritzbehandlung)
(§1) • Lösungsmittel: 78,0 GewichtsteileAceton 1,5 Gewichtsteile Dimethylformamid • Emulgator: 0,5 Gewichtsteile Alkylarylpolyglykolether
(§2) Zur Herstellung einer zweckmäßigen Wirkstoffzubereitung vermischt man 1 Gewichtsteil Wirkstoff mit den angegebenen Mengen Lösungsmittel und Emulgator und verdünnt das Konzentrat mit emulgatorhaltigem Wasser auf die gewünschte Konzentration.
Maisblattscheiben (Zea mays) werden mit einer Wirkstoffzubereitung der gewünschten Konzentration gespritzt und nach dem Abtrocknen mit Raupen des Heerwurms (Spodoptera frugiperda) besetzt.Nach 7 Tagen wird die Wirkung in % bestimmt. Dabei bedeutet 100 %, dass alle Raupen abgetötet wurden; 0 % bedeutet, dass keine Raupe abgetötet wurde.

Boophilus microplus = Boophilus microplus test (BOOPMI injection); format: in vivo; conditions: 20 µg / Tier, injection into the abdomen, after 7 days; 100 % = no tick laid fertile eggs
Description: Boophilus microplus -Test (BOOPMI Injektion)
(§3) Lösungsmittel: Dimethylsulfoxid
Zur Herstellung einer zweckmäßigen Wirkstoffzubereitung vermischt man 10 mg Wirkstoff mit 0,5 ml Lösungsmittel und verdünnt das Konzentrat mit Wasser auf die gewünschte Konzentration. Die Wirkstofflösung wird in das Abdomen (Boophilus microplus) injiziert, die Tiere werden in Schalen überführt und in einem klimatisierten Raum aufbewahrt. Die Wirkungskontrolle erfolgt auf Ablage fertiler Eier. Nach 7 Tagen wird die Wirkung in % bestimmt. Dabei bedeutet 100%, dass keine Zecke fertile Eier gelegt hat.

Phaedon cochleariae = assay: Phaedon test (PHAECO spray treatment); format: in vivo; conditions: sprayed Chinese cabbage leaf discs, larvae, after 7 days, 100 % = all beetle larvae killed
From the text: Phaedon-Test (PHAECO Spritzbehandlung)
as §1, §2
Chinakohlblattscheiben (Brassica pekinensis) werden mit einer Wirkstoffzubereitung der gewünschten Konzentration gespritzt und nach dem Abtrocknen mit Larven des Meerrettichblattkäfers (Phaedon cochleariae) besetzt.
Nach 7 Tagen wird die Wirkung in % bestimmt. Dabei bedeutet 100 %, dass alle Käferlarven abgetötet wurden; 0 % bedeutet, dass keine Käferlarven abgetötet wurden.

Tetranychus urticae = format: in vivo; conditions: foliar, 144 h
From the text: Tetranychus-Test, OP-resistent (TETRUR Spritzbehandlung)
as §1, §2
Bohnenblattscheiben (Phaseolus vulgaris), die von allen Stadien der Gemeinen Spinnmilbe (Tetranychus urticae) befallen sind, werden mit einer Wirkstoffzubereitung der gewünschten Konzentration gespritzt.
Nach 6 Tagen wird die Wirkung in % bestimmt. Dabei bedeutet 100 %, dass alle Spinnmilben abgetötet wurden; 0 % bedeutet, dass keine Spinnmilben abgetötet wurden.

Ctenocephalides felis = Ctenocephalides felis oral test (CTECFE); format: in vivo; conditions: 100 ppm in citrated cattle blood, oral uptake, adult fleas, after 2 days; 100 % = all fleas killed
Description: Ctenocephalides felis oral (CTECFE)
Lösungsmittel: 1 Gewichtsteil Dimethylsulfoxid
Zwecks Herstellung einer zweckmäßigen Wirkstoffzubereitung vermischt man 10 mg Wirkstoff mit 0,5 ml Dimethylsulfoxid. Ein Teil des Konzentrats wird mit citriertem Rinderblut verdünnt und die gewünschte Konzentration hergestellt.
20 nüchterne adulte Flöhe (Ctenocephalides felis) werden in eine Kammer eingesetzt, die oben und unten mit Gaze verschlossen ist. Auf die Kammer wird ein Metallzylinder gestellt, dessen Unterseite mit Parafilm verschlossen ist. Der Zylinder enthält die Blut-Wirkstoffzubereitung, die von den Flöhen durch die Parafilmmembran aufgenommen werden kann. Nach 2 Tagen wird die Abtötung in % bestimmt. Dabei bedeutet 100 %, dass alle Flöhe abgetötet wurden; 0 % bedeutet, dass kein Floh abgetötet wurde.

physchem [2] = assay: physchem; remark: listed apart in the source
Lucilia cuprina Larven = assay: Lucilia cuprina test (LUCICU); format: in vivo; conditions: 100 ppm, treated horse meat, larvae, after 2 days; 100 % = all larvae killed
Description: Lucilia cuprina-Test (LUCICU)
as §3
Zur Herstellung einer zweckmäßigen Wirkstoffzubereitung vermischt man 10 mg Wirkstoff mit 0,5 ml Dimethylsulfoxid und verdünnt das Konzentrat mit Wasser auf die gewünschte Konzentration.Gefäße, die Pferdefleisch enthalten, das mit der Wirkstoffzubereitung der gewünschten Konzentration behandelt wurde, werden mit Lucilia cuprina Larven besetzt.
Nach 2 Tagen wird die Abtötung in % bestimmt. Dabei bedeutet 100 %, dass alle Larven abgetötet wurden; 0 % bedeutet, dass keine Larven abgetötet wurden.

Musca domestica Adulten = assay: Musca domestica test (MUSCDO); format: in vivo; conditions: 100 ppm, treated sponge, adults, after 2 days; 100 % = all flies killed
Description: Musca domestica-Test (MUSCDO)
as §3
Zur Herstellung einer zweckmäßigen Wirkstoffzubereitung vermischt man 10 mg Wirkstoff mit 0,5 ml Dimethylsulfoxid und verdünnt das Konzentrat mit Wasser auf die gewünschte Konzentration. Gefäße, die einen Schwamm enthalten, der mit der Wirkstoffzubereitung der gewünschten Konzentration behandelt wurde, werden mit Musca domestica Adulten besetzt.
Nach 2 Tagen wird die Abtötung in % bestimmt. Dabei bedeutet 100 %, dass alle Fliegen abgetötet wurden; 0 % bedeutet, dass keine Fliegen abgetötet wurden.

## Cn1nc(C(F)(F)C(F)(F)F)c(C(F)(F)F)c1C(=O)Nc1ccc(Cl)c(C(=O)Nc2cccnc2)c1 [Ia-2]
Physchem [1]
  chromatographic logP: 2.69
Spodoptera frugiperda
  Wirkung: 100%
Boophilus microplus
  Wirkung: 100%
Phaedon cochleariae; 500 g/ha
  Wirkung: 100%
Tetranychus urticae; 500 g/ha
  Wirkung: 90%
Ctenocephalides felis
  Wirkung (Abtötung in %): 100%

## Cc1nc(C(F)(F)F)ccc1C(=O)Nc1ccc(Cl)c(C(=O)Nc2ccc(F)cc2)c1 [Ia-3, N-{4-Chlor-3-[(4-fluorphenyl)carbamoyl]phenyl}-2-methyl-6-(trifluormethyl)nicotinamid]
Spodoptera frugiperda
  Wirkung: 100%
Phaedon cochleariae; 500 g/ha
  Wirkung: 100%
Physchem [2]
  chromatographic logP: 3.15

## Cn1nc(C(F)(F)F)c(Br)c1C(=O)Nc1ccc(Cl)c(C(=O)Nc2ccc(Cl)nc2)c1 [Ia-7]
Phaedon cochleariae; 100 g/ha
  Wirkung: 100%
Tetranychus urticae; 100 g/ha
  Wirkung: 80%
Physchem [2]
  chromatographic logP: 3.42

## Cn1nc(C(F)(F)C(F)(F)F)c(C(F)(F)F)c1C(=O)Nc1ccc(Cl)c(C(=O)Nc2ccccn2)c1 [Ia-8, N-[4-Chlor-3-(pyrid-2-yl-carbamoyl)phenyl]-1-methyl-3-(pentafluorethyl)-4-(trifluormethyl)-1H-pyrazol-5-carboxamid]
Physchem [1]
  chromatographic logP: 3.53
Spodoptera frugiperda
  Wirkung: 100%
Boophilus microplus
  Wirkung: 100%
Phaedon cochleariae; 500 g/ha
  Wirkung: 100%
Tetranychus urticae; 500 g/ha
  Wirkung: 80%
Lucilia cuprina Larven
  Wirkung (Abtötung in %): 100%
Ctenocephalides felis
  Wirkung (Abtötung in %): 100%

## O=C(Nc1ccc(F)cc1)c1cc(NC(=O)c2cnc(C(F)(F)C(F)(F)F)nc2C(F)F)ccc1Cl [Ia-10]
Phaedon cochleariae; 500 g/ha
  Wirkung: 100%
Physchem [2]
  chromatographic logP: 3.67

## Cn1nc(C(F)(F)C(F)(F)F)c(C(F)(F)F)c1C(=O)Nc1ccc(Cl)c(C(=O)Nc2ccc(Cl)nc2)c1 [Ia-11]
Physchem [1]
  chromatographic logP: 3.68
Spodoptera frugiperda
  Wirkung: 100%
Boophilus microplus
  Wirkung: 100%
Phaedon cochleariae; 500 g/ha
  Wirkung: 100%
Tetranychus urticae; 500 g/ha
  Wirkung: 90%
Lucilia cuprina Larven
  Wirkung (Abtötung in %): 100%
Ctenocephalides felis
  Wirkung (Abtötung in %): 80%

## Cn1nc(C(F)(F)C(F)(F)F)c(C(F)(F)F)c1C(=O)Nc1ccc(Cl)c(C(=O)Nc2ccccc2)c1 [Ia-15]
Physchem [1]
  chromatographic logP: 3.84
Spodoptera frugiperda
  Wirkung: 100%
Boophilus microplus
  Wirkung: 100%
Phaedon cochleariae; 500 g/ha
  Wirkung: 100%
Tetranychus urticae; 500 g/ha
  Wirkung: 90%
Lucilia cuprina Larven
  Wirkung (Abtötung in %): 100%
Ctenocephalides felis
  Wirkung (Abtötung in %): 100%

## COc1cccc(NC(=O)c2cc(NC(=O)c3c(C(F)(F)F)c(C(F)(F)C(F)(F)F)nn3C)ccc2Cl)c1 [Ia-16]
Physchem [1]
  chromatographic logP: 3.84
Spodoptera frugiperda
  Wirkung: 100%
Boophilus microplus
  Wirkung: 100%
Phaedon cochleariae; 500 g/ha
  Wirkung: 100%
Tetranychus urticae; 500 g/ha
  Wirkung: 80%
Lucilia cuprina Larven
  Wirkung (Abtötung in %): 90%
Ctenocephalides felis
  Wirkung (Abtötung in %): 95%

## Cn1nc(C(F)(F)C(F)(F)F)c(C(F)(F)F)c1C(=O)Nc1ccc(Cl)c(C(=O)Nc2ccc(F)cc2)c1 [Ia-17]
Physchem [1]
  chromatographic logP: 3.89
Spodoptera frugiperda
  Wirkung: 100%
Boophilus microplus
  Wirkung: 100%
Phaedon cochleariae; 500 g/ha
  Wirkung: 100%
Tetranychus urticae; 500 g/ha
  Wirkung: 80%
Lucilia cuprina Larven
  Wirkung (Abtötung in %): 100%
Musca domestica Adulten
  Wirkung (Abtötung in %): 100%
Ctenocephalides felis
  Wirkung (Abtötung in %): 90%

## Cn1nc(C(F)(F)C(F)(F)F)c(C(F)(F)F)c1C(=O)Nc1ccc(Cl)c(C(=O)Nc2ccccc2F)c1 [Ia-18, N-{4-Chlor-3-[(2-fluorphenyl)carbamoyl]phenyl}-1-methyl-3-(pentafluorethyl)-4-(trifluormethyl)-1H-pyrazol-5-carboxamid]
Physchem [1]
  chromatographic logP: 3.94
Spodoptera frugiperda
  Wirkung: 100%
Boophilus microplus
  Wirkung: 100%
Phaedon cochleariae; 500 g/ha
  Wirkung: 100%
Tetranychus urticae; 500 g/ha
  Wirkung: 100%
Ctenocephalides felis
  Wirkung (Abtötung in %): 100%

## O=C(Nc1ccc(F)cc1)c1cc(NC(=O)c2cnc(C(F)(F)C(F)(F)F)nc2C(F)(F)F)ccc1Cl [Ia-20]
Spodoptera frugiperda
  Wirkung: 100%
Phaedon cochleariae; 500 g/ha
  Wirkung: 100%
Physchem [2]
  chromatographic logP: 3.98

## O=C(Nc1ccc(F)cc1)c1cc(NC(=O)c2cnc(C(F)(F)C(F)(F)F)nc2C2CC2)ccc1Cl [Ia-24]
Spodoptera frugiperda
  Wirkung: 100%
Phaedon cochleariae; 500 g/ha
  Wirkung: 100%
Physchem [2]
  chromatographic logP: 4.08

## O=C(Nc1cccc(Cl)c1)c1cc(NC(=O)c2cnc(C(F)(F)C(F)(F)F)nc2C(F)F)ccc1Cl [Ia-25]
Spodoptera frugiperda
  Wirkung: 100%
Phaedon cochleariae; 500 g/ha
  Wirkung: 100%
Physchem [2]
  chromatographic logP: 4.08

## Cn1nc(C(F)(F)C(F)(F)F)c(C(F)(F)F)c1C(=O)Nc1ccc(Cl)c(C(=O)Nc2ccc(Cl)cc2)c1 [Ia-28]
Physchem [1]
  chromatographic logP: 4.23
Spodoptera frugiperda
  Wirkung: 100%
Boophilus microplus
  Wirkung: 100%
Phaedon cochleariae; 500 g/ha
  Wirkung: 100%
Tetranychus urticae; 500 g/ha
  Wirkung: 80%
Lucilia cuprina Larven
  Wirkung (Abtötung in %): 100%
Ctenocephalides felis
  Wirkung (Abtötung in %): 80%

## Cc1cc(NC(=O)c2cc(NC(=O)c3c(C(F)(F)F)c(C(F)(F)C(F)(F)F)nn3C)ccc2Cl)ccc1F [Ia-29]
Physchem [1]
  chromatographic logP: 4.23
Spodoptera frugiperda
  Wirkung: 100%
Boophilus microplus
  Wirkung: 100%
Phaedon cochleariae; 500 g/ha
  Wirkung: 100%
Lucilia cuprina Larven
  Wirkung (Abtötung in %): 100%
Ctenocephalides felis
  Wirkung (Abtötung in %): 90%

## Cn1nc(C(F)(F)C(F)(F)F)c(C(F)(F)F)c1C(=O)Nc1ccc(Cl)c(C(=O)Nc2cccc(Cl)c2)c1 [Ia-30]
Physchem [1]
  chromatographic logP: 4.28
Spodoptera frugiperda
  Wirkung: 100%
Boophilus microplus
  Wirkung: 100%
Phaedon cochleariae; 500 g/ha
  Wirkung: 100%
Tetranychus urticae; 500 g/ha
  Wirkung: 90%
Lucilia cuprina Larven
  Wirkung (Abtötung in %): 100%
Ctenocephalides felis
  Wirkung (Abtötung in %): 90%

## Cn1nc(C(F)(F)C(F)(F)F)c(C(F)(F)F)c1C(=O)Nc1ccc(Cl)c(C(=O)Nc2ccccc2Cl)c1 [Ia-31]
Physchem [1]
  chromatographic logP: 4.28
Spodoptera frugiperda
  Wirkung: 100%
Phaedon cochleariae; 500 g/ha
  Wirkung: 100%
Ctenocephalides felis
  Wirkung (Abtötung in %): 95%

## O=C(Nc1cccc(Cl)c1)c1cc(NC(=O)c2cnc(C(F)(F)C(F)(F)F)nc2C(F)(F)F)ccc1Cl [Ia-32, N-{4-Chlor-3-[(3-chlorphenyl)carbamoyl]phenyl}-2-(pentafluorethyl)-4-(trifluormethyl)pyrimidin-5-carboxamid]
Spodoptera frugiperda
  Wirkung: 100%
Phaedon cochleariae; 500 g/ha
  Wirkung: 100%
Physchem [2]
  chromatographic logP: 4.32

## O=C(Nc1ccc(F)cc1)c1cc(NC(=O)c2cnc(C(F)(F)C(F)(F)F)nc2C(F)(F)C(F)(F)F)ccc1Cl [Ia-34]
Spodoptera frugiperda
  Wirkung: 100%
Phaedon cochleariae; 500 g/ha
  Wirkung: 100%
Tetranychus urticae; 500 g/ha
  Wirkung: 80%
Physchem [2]
  chromatographic logP: 4.36

## Cn1nc(C(F)(F)C(F)(F)F)c(C(F)(F)F)c1C(=O)Nc1ccc(Cl)c(C(=O)Nc2ccc(C(F)(F)F)cc2)c1 [Ia-36]
Physchem [1]
  chromatographic logP: 4.4
Spodoptera frugiperda
  Wirkung: 100%
Boophilus microplus
  Wirkung: 100%
Phaedon cochleariae; 500 g/ha
  Wirkung: 100%
Lucilia cuprina Larven
  Wirkung (Abtötung in %): 90%

## Cn1nc(C(F)(F)C(F)(F)F)c(Br)c1C(=O)Nc1ccc(Cl)c(C(=O)Nc2ccc(Cl)cc2)c1 [Ia-38]
Phaedon cochleariae; 500 g/ha
  Wirkung: 80%
Physchem [2]
  chromatographic logP: 4.43

## O=C(Nc1cccc(Cl)c1)c1cc(NC(=O)c2cnc(C(F)(F)C(F)(F)F)nc2C2CC2)ccc1Cl [Ia-40]
Spodoptera frugiperda
  Wirkung: 100%
Physchem [2]
  chromatographic logP: 4.54

## Cn1nc(Cn2nc(C(F)(F)C(F)(F)F)cc2C(F)(F)C(F)(F)F)c(C(F)(F)F)c1C(=O)Nc1ccc(Cl)c(C(=O)Nc2ccc(F)cc2)c1 [Ia-43]
Spodoptera frugiperda
  Wirkung: 100%
Phaedon cochleariae; 500 g/ha
  Wirkung: 100%
Physchem [2]
  chromatographic logP: 4.99

## Cn1nc(C(F)(F)C(F)(F)F)c(C(F)(F)F)c1C(=O)Nc1ccc(Br)c(C(=O)Nc2ccc(F)cc2)n1 [Ic-1, N-[3-Brom-2-(4-fluor-phenylcarbamoyl)pyrid-6-yl]-1-methyl-3-(pentafluorethyl)-4-(trifluormethyl)-1H-pyrazol-5-carbonsäureamid]
Spodoptera frugiperda
  Wirkung: 100%
Phaedon cochleariae; 500 g/ha
  Wirkung: 100%
Physchem [2]
  chromatographic logP: 4.45
